Assay results published in ChEMBL document CHEMBL3046288, “Effect of isoxaflutole on the growth, nodulation and nitrogen fixation of chickpea (Cicer arietinum L.)” (Crop Prot, 2009).

What was measured:
Assay type in all cases: organism-based
Cicer arietinum [1] = assay: Toxicity in drug-sensitive Cicer arietinum (chickpea) assessed as effect on root dry weight per pot at 75 g/ha after 42 days (reference value: 0.26 gram); conditions: in vivo, 1008 h
Cicer arietinum [2] = assay: Toxicity in drug-tolerant Cicer arietinum (chickpea) assessed as effect on plant height at 75 g/ha after 42 days (reference value: 21.4 cm); conditions: in vivo, 1008 h
Cicer arietinum [3] = assay: Toxicity in drug-sensitive Cicer arietinum (chickpea) assessed as effect on root nitrogen level per gram of root dry weight at 75 g/ha after 42 days (reference value: 13.4 mg); conditions: in vivo, 1008 h
Cicer arietinum [4] = assay: Toxicity in drug-sensitive Cicer arietinum (chickpea) assessed as effect on shoot dry weight per pot at 75 g/ha after 42 days in presence of 1.5 mM of nitrate (reference value: 0.38 gram); conditions: in vivo, 1008 h
Cicer arietinum [5] = assay: Toxicity in drug-tolerant Cicer arietinum (chickpea) assessed as effect on amount of fixed nitrogen level per gram of plant dry weight at 75 g/ha after 42 days in presence of 1.5 mM of nitrate (reference value: 5.9 mg); conditions: in vivo, 1008 h
Cicer arietinum [6] = assay: Toxicity in drug-tolerant Cicer arietinum (chickpea) assessed as effect on root dry weight per pot at 75 g/ha after 42 days (reference value: 0.30 gram); conditions: in vivo, 1008 h
Cicer arietinum [7] = assay: Toxicity in drug-tolerant Cicer arietinum (chickpea) assessed as effect on amount of fixed nitrogen level per gram of plant dry weight at 75 g/ha after 42 days (reference value: 5.5 mg); conditions: in vivo, 1008 h
Cicer arietinum [8] = assay: Toxicity in drug-sensitive Cicer arietinum (chickpea) assessed as effect on average nodule weight at 75 g/ha after 42 days (reference value: 1.31 mg); conditions: in vivo, 1008 h
Cicer arietinum [9] = assay: Toxicity in drug-tolerant Cicer arietinum (chickpea) assessed as effect on total nitrogen level per gram of plant dry weight at 75 g/ha after 42 days (reference value: 31.1 mg); conditions: in vivo, 1008 h
Cicer arietinum [10] = assay: Toxicity in drug-sensitive Cicer arietinum (chickpea) assessed as effect on plant height at 75 g/ha after 42 days (reference value: 21.8 cm); conditions: in vivo, 1008 h
Cicer arietinum [11] = assay: Toxicity in drug-tolerant Cicer arietinum (chickpea) assessed as effect on shoot dry weight per pot at 75 g/ha after 42 days (reference value: 0.53 gram); conditions: in vivo, 1008 h
Cicer arietinum [12] = assay: Toxicity in drug-tolerant Cicer arietinum (chickpea) assessed as effect on root nitrogen level per gram of root dry weight at 75 g/ha after 42 days (reference value: 12.1 mg); conditions: in vivo, other, 1008 h
Cicer arietinum [13] = assay: Toxicity in drug-sensitive Cicer arietinum (chickpea) assessed as effect on total nitrogen level per gram of plant dry weight at 75 g/ha after 42 days (reference value: 34.5 mg); conditions: in vivo, 1008 h
Cicer arietinum [14] = assay: Toxicity in drug-sensitive Cicer arietinum (chickpea) assessed as effect on amount of fixed nitrogen level per gram of plant dry weight at 75 g/ha after 42 days in presence of 1.5 mM of nitrate (reference value: 6 mg); conditions: in vivo, 1008 h
Cicer arietinum [15] = assay: Toxicity in drug-sensitive Cicer arietinum (chickpea) assessed as effect on shoot dry weight per pot at 75 g/ha after 42 days (reference value: 0.50 gram); conditions: in vivo, 1008 h
Cicer arietinum [16] = assay: Toxicity in drug-tolerant Cicer arietinum (chickpea) assessed as effect on nodule dry weight per gram of root dry weight at 75 g/ha after 42 days (reference value: 209.7 mg); conditions: in vivo, other, 1008 h
Cicer arietinum [17] = assay: Toxicity in drug-tolerant Cicer arietinum (chickpea) assessed as effect on average nodule weight at 75 g/ha after 42 days (reference value: 1.21 mg); conditions: in vivo, 1008 h
Cicer arietinum [18] = assay: Toxicity in drug-sensitive Cicer arietinum (chickpea) assessed as effect on amount of fixed nitrogen level per gram of plant dry weight at 75 g/ha after 42 days (reference value: 5.5 mg); conditions: in vivo, 1008 h
Cicer arietinum [19] = assay: Toxicity in drug-tolerant Cicer arietinum (chickpea) assessed as effect on shoot dry weight per pot at 75 g/ha after 42 days in presence of 1.5 mM of nitrate (reference value: 0.50 gram); conditions: in vivo, 1008 h
Cicer arietinum [20] = assay: Toxicity in drug-sensitive Cicer arietinum (chickpea) assessed as effect on nodule dry weight per gram of root dry weight at 75 g/ha after 42 days (reference value: 258 mg); conditions: in vivo, 1008 h

## CS(=O)(=O)c1cc(C(F)(F)F)ccc1C(=O)c1cnoc1C1CC1 [ISOXAFLUTOLE]
Cicer arietinum [1]
  Activity: 0.13 g
Cicer arietinum [2]
  Activity: 20.6 cm
Cicer arietinum [3]
  Activity: 8.1 mg
Cicer arietinum [4]
  Activity: 0.51 g
Cicer arietinum [5]
  Activity: 3.1 mg
Cicer arietinum [6]
  Activity: 0.27 g
Cicer arietinum [7]
  Activity: 3.7 mg
Cicer arietinum [8]
  Activity: 0.76 mg
Cicer arietinum [9]
  Activity: 30.1 mg
Cicer arietinum [10]
  Activity: 15.5 cm
Cicer arietinum [11]
  Activity: 0.51 g
Cicer arietinum [12]
  Activity: 11.1 mg
Cicer arietinum [13]
  Activity: 27.4 mg
Cicer arietinum [14]
  Activity: 4.6 mg
Cicer arietinum [15]
  Activity: 0.39 g
Cicer arietinum [16]
  Activity: 174.9 mg
Cicer arietinum [17]
  Activity: 1.16 mg
Cicer arietinum [18]
  Activity: 3.5 mg
Cicer arietinum [19]
  Activity: 0.54 g
Cicer arietinum [20]
  Activity: 123.7 mg
